Results: patent publication US20100152252A1, “Heterocyclyl-substituted-ethylamino-phenyl derivatives, their preparation and use as medicaments” (LABORATORIOS DEL DR. ESTEVE,S.A., priority 2006, published 2010)

Each compound was assayed on 5-HT1 (assay: 5-HT1 IC50). Conditions: not given.
Type: binding

| Compound | IC50 |
| --- | --- |
| Cc1nn(C)c(C)c1-c1cccc(CCN(C)C)c1 [Example 1, Dimethyl-{2-[3-(1,3,5-trimethyl-1H-pyrazol-4-yl)-phenyl]-ethyl}-amine] | > 1000 nM |

Each compound was assayed against 5HT7 receptor (Homo sapiens, UniProt P34969) (assay: Functionality assay on the 5HT7 receptor). Conditions: not given.
Type: biochemical
From the text: Functionality assay on the 5HT7 receptor were done according to those known in the state of the art.

5HT7 receptor, sequence (P34969 whole entry): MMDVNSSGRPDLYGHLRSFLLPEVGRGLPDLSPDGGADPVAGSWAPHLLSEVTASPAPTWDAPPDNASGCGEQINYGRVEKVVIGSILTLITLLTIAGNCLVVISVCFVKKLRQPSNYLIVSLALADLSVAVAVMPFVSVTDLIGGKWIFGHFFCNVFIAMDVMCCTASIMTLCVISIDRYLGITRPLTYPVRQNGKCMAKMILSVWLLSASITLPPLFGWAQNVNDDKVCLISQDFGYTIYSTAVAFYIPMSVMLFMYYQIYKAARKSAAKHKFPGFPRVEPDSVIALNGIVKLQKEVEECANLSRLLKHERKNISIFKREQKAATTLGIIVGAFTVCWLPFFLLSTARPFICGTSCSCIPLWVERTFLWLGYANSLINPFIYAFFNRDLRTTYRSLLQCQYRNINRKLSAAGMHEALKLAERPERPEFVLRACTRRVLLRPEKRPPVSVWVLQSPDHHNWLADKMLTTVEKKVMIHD

| Compound | EC50 | Emax |
| --- | --- | --- |
| Cc1nn(C)c(C)c1-c1cccc(CCN(C)C)c1 [Example 1, Dimethyl-{2-[3-(1,3,5-trimethyl-1H-pyrazol-4-yl)-phenyl]-ethyl}-amine] | 25.5 ± 2 nM | 94% |

Each compound was assayed against T1, Cloned Human Serotonin Receptor, Subtype 7 (h5HT7) (Homo sapiens, UniProt P34969) (assay: Radioligand binding, [125I]LSD, h5HT7 expressed in CHO cells). Conditions: not given.
T1 construct: purchased PerkinElmer 6120512; host or cells: CHO cells
Protocol: Radioligand binding assays were performed using the Cloned Human Serotonin Receptor, Subtype 7 (h5HT7), expressed in CHO cells, coated on Flashplate (Basic FlashPlate Cat.: SMP200) from PerkinElmer (Cat.: 6120512). The protocol assay was essentially the recommended protocol in the Technical Data Sheet by PerkinEmer Life and Analytical Sciences. The Mass membrane protein/well was typically […] and the Receptor/well was about 9-10 fmoles. The Flashplate were let equilibrate at room temperature for one hour before the addition of the components of the assay mixture. The binding buffer was: 50 mM Tris-HCl, pH 7.4, containing 10 mM MgCl2, 0.5 mM EDTA and 0.5% BSA. The radioligand was [^125I]LSD at a final concentration of 0.82 nM. Nonspecific binding was determined with 50 μM of Clozapine. The assay volume was 25 μl. TopSeal-A were applied onto Flashplate microplates and they were incubated at room temperature for 240 minutes in darkness. The radioactivity were quantified by liquid scintillation spectrophotometry (Wallac 1450 Microbeta Trilux) with a count delay of 4 minutes prior to counting and a counting time of 30 seconds per well. Competition binding data were analyzed by using the LIGAND program (Munson and Rodbard, LIGAND: A versatile, computerized approach for characterization of ligand-binding systems. Anal. Biochem. 107: 220-239, 1980) and assays were performed in triplicate determinations for each point.

T1 sequence (P34969 whole entry): as above

| Compound | IC50 |
| --- | --- |
| CCCN(CCC)CCc1cccc(-c2c(C)nn(C)c2C)c1 [Example 4, Dipropyl-{2-[3-(1,3,5-trimethyl-1H-pyrazol-4-yl)-phenyl]-ethyl}-amine] | 56.9 ± 17.9 nM |
| CCCN(CCC)CCc1cccc(-c2ccccc2OC)c1 [Example 24, [2-(2′-Methoxy-biphenyl-3-yl)-ethyl]-dipropyl-amine] | 84.9 nM |
| Cc1nn(C)c(C)c1-c1cccc(CCN)c1 [Example 29, 2-[3-(1,3,5-Trimethyl-1H-pyrazol-4-yl)-phenyl]-ethylamine] | 4.5 ± 1.5 nM |
| CNCCc1cccc(-c2c(Cl)cccc2OC)c1 [Example 39, [2-(6′-Chloro-2′-methoxy-biphenyl-3-yl)-ethyl]-methyl-amine] | 8.8 nM |
| Cc1nn(C)c(C)c1-c1cccc(CCN(C)C)c1 [Example 1, Dimethyl-{2-[3-(1,3,5-trimethyl-1H-pyrazol-4-yl)-phenyl]-ethyl}-amine] | 6.1 ± 0.7 nM |
| Cc1cccc(C)c1-c1cccc(CCN(C)C)c1 [Example 9, [2-(2′,6′-Dimethyl-biphenyl-3-yl)-ethyl]-dimethyl-amine] | 10.1 ± 0.8 nM |
| CN(C)CCc1cccc(-c2c(F)cccc2F)c1 [Example 35, [2-(2′,6′-Difluoro-biphenyl-3-yl)-ethyl]-dimethyl-amine] | 20.8 nM |
| COc1ccccc1-c1cccc(CCN(C)C)c1 [Example 21, [2-(2′-Methoxy-biphenyl-3-yl)-ethyl]-dimethyl-amine] | 19.9 ± 1.7 nM |
| CN(C)CCc1cccc(-c2c(Cl)cccc2Cl)c1 [Example 34] | 5 ± 1.7 nM |
| COc1cccc(OC)c1-c1cccc(CCN(C)C)c1 [Example 13, [2-(2′,6′-Dimethoxy-biphenyl-3-yl)-ethyl]-dimethyl-amine] | 19.7 ± 1.5 nM |
| CCN(CC)CCc1cccc(-c2c(C)nn(C)c2C)c1 [Example 3, Diethyl-{2-[3-(1,3,5-trimethyl-1H-pyrazol-4-yl)-phenyl]-ethyl}-amine] | 76.2 nM |
| COc1cccc(OC)c1-c1cccc(CCN)c1 [Example 33, 2-(2′6′-Dimethoxy-biphenyl-3-yl)-ethylamine] | 122 nM |
| CNCCc1cccc(-c2cccnc2OC)c1 [Example 37, {2-[3-(2-Methoxy-pyridin-3-yl)-phenyl]-ethyl}-methyl-amine] | 157 nM |
| CCN(CC)CCc1cccc(-c2c(C)cccc2C)c1 [Example 11, [2-(2′,6′-Dimethyl-biphenyl-3-yl)-ethyl]-diethyl-amine] | 43.5 ± 15.9 nM |
| COc1ncccc1-c1cccc(CCN(C)C)c1 [Example 36, {2-[3-(2-Methoxy-pyridin-3-yl)-phenyl]-ethyl}-dimethyl-amine] | 303 nM |
| COc1cccc(Cl)c1-c1cccc(CCN(C)C)c1 [Example 38, [2-(6′-Chloro-2′-methoxy-biphenyl-3-yl)-ethyl]-dimethyl-amine] | 24 ± 2.3 nM |
| CCCN(CCC)CCc1cccc(-c2c(C)cccc2C)c1 [Example 12, [2-(2′,6′-Dimethyl-biphenyl-3-yl)-ethyl]-dipropyl-amine] | 42.6 ± 21.1 nM |

Same assay, conditions: [125I]LSD 0.82 nM, h5HT7 in CHO cells; read-out: 5-HT7 IC50

| Compound | IC50 |
| --- | --- |
| CCCN(CCC)CCc1cccc(-c2c(C)noc2C)c1 [Example 28, {2-[3-(3,5-Dimethyl-isoxazol-4-yl)-phenyl]-ethyl}-dipropyl-amine] | 602 nM |
| CCN(CC)CCc1cccc(-c2ccccc2OC)c1 [Example 23, Diethyl-[2-(2′-methoxy-biphenyl-3-yl)-ethyl]-amine] | 155 nM |
| Cc1noc(C)c1-c1cccc(CCN(C)C)c1 [Example 25, {2-[3-(3,5-Dimethyl-isoxazol-4-yl)-phenyl]-ethyl}-dimethyl-amine] | 802 ± 159 nM |
| CCN(CC)CCc1cccc(-c2c(OC)cccc2OC)c1 [Example 15, [2-(2′,6′-Dimethoxy-biphenyl-3-yl)-ethyl]-diethyl-amine] | 302 nM |
| Cc1n[nH]c(C)c1-c1cccc(CCN(C)C)c1 [Example 5, {2-[3-(3,5-Dimethyl-1H-pyrazol-4-yl)-phenyl]-ethyl}-dimethyl-amine] | 129 ± 16.8 nM |
| CCN(CC)CCc1cccc(-c2cnn(C)c2)c1 [Example 19, Diethyl-{2-[3-(1-methyl-1H-pyrazol-4-yl)-phenyl]-ethyl}-amine] | 753 nM |
| Cc1nn(C)c(C)c1-c1cccc(CCN2CCCC2)c1 [Example 42, 1,3,5-Trimethyl-4-[3-(2-pyrrolidin-1-yl-ethyl)-phenyl]-1H-pyrazole] | 139 ± 0.7 nM |
| CCCN(CCC)CCc1cccc(-c2c(OC)cccc2OC)c1 [Example 16, [2-(2′,6′-Dimethoxy-biphenyl-3-yl)-ethyl]-dipropyl-amine] | 118 ± 45.9 nM |
